How the values were obtained:
Assay in all cases: Test D controlled growth environment herbicide test, pre- and postemergence
Assay type in all cases: in vivo
[1] = system: bluegrass (annual bluegrass, Poa annua)
Method in brief: (§1)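 Species sown in silt loam and sprayed preemergence, or grown in peat-based medium to 2–18 cm (1- to 4-leaf stage) and sprayed postemergence, with compounds in non-phytotoxic solvent plus surfactant. Visual injury scored versus controls after 14–21 d in a controlled environment, 0 (no effect) to 100 (complete control).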

[2] = system: ryegrass, Italian (Italian ryegrass, Lolium multiflorum)
Method in brief: as §1

[3] = system: deadnettle (henbit deadnettle, Lamium amplexicaule)
Method in brief: as §1

[4] = system: chickweed (common chickweed, Stellaria media)
Method in brief: as §1

[5] = system: field poppy (Papaver rhoeas)
Method in brief: as §1

[6] = system: foxtail, green (green foxtail, Setaria viridis)
Method in brief: as §1

[7] = system: radish, wild (wild radish, Raphanus raphanistrum)
Method in brief: as §1

[8] = system: canarygrass (Phalaris minor)
Method in brief: as §1

[9] = system: wheat, winter (winter wheat, Triticum aestivum)
Method in brief: as §1

[10] = system: windgrass (Apera spica-venti)
Method in brief: as §1

[11] = system: barley, winter (winter barley, Hordeum vulgare)
Method in brief: as §1

[12] = system: barley, spring (spring barley, Hordeum vulgare)
Method in brief: as §1

[13] = system: mustard, wild (wild mustard, Sinapis arvensis)
Method in brief: as §1

[14] = Postemergence, 31 g ai/ha, scale 0 to 100 (0 no effect, 100 complete control)
[15] = Postemergence, 125 g ai/ha, visual rating on scale 0 (no effect) to 100 (complete control), 14 to 21 d
[16] = Postemergence, 250 g ai/ha, scale 0 to 100 (0 no effect, 100 complete control)
[17] = Preemergence, 62 g ai/ha, scale 0 to 100 (0 no effect, 100 complete control)
[18] = Preemergence, 125 g ai/ha, scale 0 to 100 (0 no effect, 100 complete control)
[19] = Preemergence, 250 g ai/ha, scale 0 to 100 (0 no effect, 100 complete control)
[20] = postemergence, 62 g ai/ha, scale 0 to 100, 0 no effect, 100 complete control

CCOC(=O)Oc1c(C)nn(C)c(=O)c1-c1c(C)sc2c(C)cc(C)cc12 [Compound 83]
Bluegrass plant response rating [1, 14]: 0 | Plant response rating, Bluegrass [1, 15]: 15 | Plant response rating, Bluegrass [1, 16]: 25 | Plant response rating (scale of 0 to 100), Bluegrass ([1]; Preemergence, 31 g ai/ha): 15 | Plant response rating, Bluegrass [1, 17]: 15 | Plant response rating, Bluegrass [1, 18]: 35 | Plant response rating, Bluegrass [1, 19]: 35 | Plant response rating, Bluegrass [1, 20]: 10 | Ryegrass, Italian plant response rating [2, 14]: 80 | Plant response rating, Ryegrass, Italian [2, 15]: 90 | Plant response rating, Ryegrass, Italian [2, 16]: 90 | Plant response rating (scale of 0 to 100), Ryegrass, Italian ([2]; Preemergence, 31 g ai/ha): 40 | Plant response rating (scale of 0 to 100), Ryegrass, Italian ([2]; Preemergence, 62 g ai/ha): 75 | Plant response rating, Ryegrass, Italian [2, 18]: 90 | Plant response rating, Ryegrass, Italian [2, 19]: 100 | Plant response rating, Ryegrass, Italian [2, 20]: 85 | Deadnettle plant response rating [3, 14]: 15 | Plant response rating, Deadnettle [3, 15]: 55 | Plant response rating, Deadnettle [3, 16]: 60 | Plant response rating (scale of 0 to 100), Deadnettle ([3]; Preemergence, 31 g ai/ha): 0 | Plant response rating (scale of 0 to 100), Deadnettle ([3]; Preemergence, 62 g ai/ha): 0 | Plant response rating, Deadnettle [3, 18]: 15 | Plant response rating, Deadnettle [3, 19]: 100 | Plant response rating, Deadnettle [3, 20]: 25 | Chickweed plant response rating [4, 14]: 100 | Plant response rating, Chickweed [4, 15]: 100 | Plant response rating, Chickweed [4, 16]: 100 | Plant response rating (scale of 0 to 100), Chickweed ([4]; Preemergence, 31 g ai/ha): 100 | Plant response rating (scale of 0 to 100), Chickweed ([4]; Preemergence, 62 g ai/ha): 100 | Plant response rating, Chickweed [4, 18]: 100 | Plant response rating, Chickweed [4, 19]: 100 | Plant response rating, Chickweed [4, 20]: 100 | Field Poppy plant response rating [5, 14]: 100 | Plant response rating, Field Poppy [5, 15]: 100 | Plant response rating, Field Poppy [5, 16]: 100 | Plant response rating (scale of 0 to 100), Field Poppy ([5]; Preemergence, 31 g ai/ha): 100 | Plant response rating (scale of 0 to 100), Field Poppy ([5]; Preemergence, 62 g ai/ha): 100 | Plant response rating, Field Poppy [5, 18]: 100 | Plant response rating, Field Poppy [5, 19]: 100 | Plant response rating, Field Poppy [5, 20]: 100 | Foxtail, Green plant response rating [6, 14]: 75 | Plant response rating, Foxtail, Green [6, 15]: 90 | Plant response rating, Foxtail, Green [6, 16]: 100 | Plant response rating (scale of 0 to 100), Foxtail, Green ([6]; Preemergence, 31 g ai/ha): 15 | Plant response rating (scale of 0 to 100), Foxtail, Green ([6]; Preemergence, 62 g ai/ha): 50 | Plant response rating, Foxtail, Green [6, 18]: 100 | Plant response rating, Foxtail, Green [6, 19]: 100 | Plant response rating, Foxtail, Green [6, 20]: 90 | Radish, Wild plant response rating [7, 14]: 75 | Plant response rating, Radish, Wild [7, 15]: 100 | Plant response rating, Radish, Wild [7, 16]: 100 | Plant response rating (scale of 0 to 100), Radish, Wild ([7]; Preemergence, 31 g ai/ha): 30 | Plant response rating (scale of 0 to 100), Radish, Wild ([7]; Preemergence, 62 g ai/ha): 70 | Plant response rating, Radish, Wild [7, 18]: 90 | Plant response rating, Radish, Wild [7, 19]: 90 | Plant response rating, Radish, Wild [7, 20]: 90 | Canarygrass plant response rating [8, 14]: 50 | Plant response rating, Canarygrass [8, 15]: 80 | Plant response rating, Canarygrass [8, 16]: 90 | Plant response rating (scale of 0 to 100), Canarygrass ([8]; Preemergence, 31 g ai/ha): 65 | Plant response rating (scale of 0 to 100), Canarygrass ([8]; Preemergence, 62 g ai/ha): 85 | Plant response rating, Canarygrass [8, 18]: 90 | Plant response rating, Canarygrass [8, 19]: 100 | Plant response rating, Canarygrass [8, 20]: 75 | Wheat, Winter plant response rating [9, 14]: 0 | Plant response rating, Wheat, Winter [9, 15]: 5 | Plant response rating, Wheat, Winter [9, 16]: 10 | Plant response rating (scale of 0 to 100), Wheat, Winter ([9]; Preemergence, 31 g ai/ha): 0 | Plant response rating (scale of 0 to 100), Wheat, Winter ([9]; Preemergence, 62 g ai/ha): 0 | Plant response rating, Wheat, Winter [9, 18]: 5 | Plant response rating, Wheat, Winter [9, 19]: 25 | Plant response rating, Wheat, Winter [9, 20]: 0 | Windgrass plant response rating [10, 14]: 75 | Plant response rating, Windgrass [10, 15]: 90 | Plant response rating, Windgrass [10, 16]: 95 | Plant response rating (scale of 0 to 100), Windgrass ([10]; Preemergence, 31 g ai/ha): 15 | Plant response rating (scale of 0 to 100), Windgrass ([10]; Preemergence, 62 g ai/ha): 75 | Plant response rating, Windgrass [10, 18]: 90 | Plant response rating, Windgrass [10, 19]: 95 | Plant response rating, Windgrass [10, 20]: 85 | Barley, Winter plant response rating [11, 14]: 0 | Plant response rating, Barley, Winter [11, 15]: 0 | Plant response rating, Barley, Winter [11, 16]: 15 | Plant response rating (scale of 0 to 100), Barley, Winter ([11]; Preemergence, 31 g ai/ha): 0 | Plant response rating, Barley, Winter [11, 17]: 0 | Plant response rating, Barley, Winter [11, 18]: 0 | Plant response rating, Barley, Winter [11, 19]: 40 | Plant response rating, Barley, Winter [11, 20]: 0 | Barley, Spring plant response rating [12, 14]: 0 | Plant response rating, Barley, Spring [12, 15]: 5 | Plant response rating, Barley, Spring [12, 16]: 10 | Plant response rating (scale of 0 to 100), Barley, Spring ([12]; Preemergence, 31 g ai/ha): 0 | Plant response rating, Barley, Spring [12, 17]: 0 | Plant response rating, Barley, Spring [12, 18]: 0 | Plant response rating, Barley, Spring [12, 19]: 5 | Plant response rating, Barley, Spring [12, 20]: 5 | Mustard, Wild plant response rating [13, 14]: 25 | Plant response rating, Mustard, Wild [13, 15]: 65 | Plant response rating, Mustard, Wild [13, 16]: 70 | Plant response rating (scale of 0 to 100), Mustard, Wild ([13]; Preemergence, 31 g ai/ha): 0 | Plant response rating (scale of 0 to 100), Mustard, Wild ([13]; Preemergence, 62 g ai/ha): 0 | Plant response rating, Mustard, Wild [13, 18]: 35 | Plant response rating, Mustard, Wild [13, 19]: 25 | Plant response rating, Mustard, Wild [13, 20]: 25

Reference: patent publication US10597388B2, “Pyridazinone herbicides” (FMC CORPORATION, priority 2014, dated 2020)
